The values below come from paper PMC9413144, “Similar 5F-APINACA Metabolism between CD-1 Mouse and Human Liver Microsomes Involves Different P450 Cytochromes” (Metabolites, 2022).

For data set [1], the system named is CD-1 mouse liver microsomes. Kind of data set: Steady-state kinetics for 5F-APINACA metabolism by CD-1 mouse liver microsomes. The class given is in vitro ADME. How it is done: (§1) The in vitro 5F-APINACA analyses relied on reactions with human liver microsomes 150 (HLM150) as a model for the average adult human liver and CD-1 mouse liver microsomes as the standard for SCB studies. In a 96-half-well microplate, reaction conditions included human or mouse liver microsomes in 100 mM potassium phosphate buffer pH 7.4, 0.1% methanol (co-solvent), and 5F-APINACA concentrations ranging from 0 to 250 µM. The microplates were preincubated for 15 min at 37 °C with shaking at 350 rpm using a BMG Labtech THERMOstar incubator (Ortenberg, Germany). The addition of an NADPH-regenerating system (4 U/mL glucose-6-phosphate dehydrogenase, 12 mM glucose 6-phosphate, 12 mM MgCl2, 4 mM NADP^+) initiated the reaction. Reactions were quenched by adding an equal volume of ice-cold acetonitrile containing an internal standard (2 μM acenocoumarol final). Samples were chilled on ice for 10 min to optimize precipitation of proteins in phosphate buffer. After 3500 rpm centrifugation at 4 °C for 15 min using a Sorvall ST 16R centrifuge (Thermo Scientific; Waltham, MA, USA), the supernatant was transferred to HPLC vials for HPLC analyses. Standards for metabolite quantifications were prepared with human or mouse liver microsomes in 100 mM potassium phosphate buffer pH 7.4, 0.1% methanol (co-solvent), and 5OH-APINACA concentrations ranging from 0 to 15 µM. The microplates were preincubated for 15 min at 37 °C with shaking at 350 rpm. Reactions were initiated upon addition of the NADPH-regenerating system or 100 mM potassium phosphate as a negative control. For kinetic studies, initial control experiments were carried out to determine the lowest protein concentration and optimal reaction time within the linear response range for all observed metabolites reflecting steady-state conditions. Each set of steady-state reactions were performed at least in triplicate and replicated two times at a minimum. The composition of reactions was determined by liquid chromatographic analysis involving detection of analytes via UV/visible absorbance and mass spectroscopy (Section 2.5).
(§2) We employed explicit equations and numerical methods to model kinetic profiles. In the first case, metabolite levels were used to calculate initial reaction rates for plotting against substrate concentration with GraphPad Prism 9.2 from GraphPad Software, Inc. (San Diego, CA, USA). […] For the numerical methods, ordinary differential equations (ODEs) describing single-substrate (ES) and multi-substrate (ESS) binding kinetics were initially used to fit the models to the primary metabolite formation datasets. The AICc was used to determine the most appropriate model for the same dataset. Predicted parameter estimates from the most appropriate model were then used as initial parameter estimates for a variety of enzyme–substrate–sequential metabolism (ESP1P2P3) models. Schemes included fast- and slow-release rates of metabolite P2 from the enzyme site, either after the first binding event, the second binding event, or both events. A final best-fit model was selected based on AICc values, weighted residuals, and parameter estimate errors. For comparison of all multi-substrate-sequential metabolism models, including the final integrated model, all metabolite data were used simultaneously for model fitting. All association rate constants were fixed at 270 μM^−1 min^−1. When any rate constant within the model had to be held constant, a sensitivity analysis was performed over a range of values to ensure the validity of the results. Based on preliminary model fitting attempts, consistent enzyme kinetic schemes were developed for fitting to both human and CD-1 mouse liver microsomal reaction datasets. Mathematica version 12.3 (Wolfram Research, Champaign, IL, USA) was used for model fitting. The ODEs were numerically solved with NDSolve to provide interpolated functions of each enzyme species. […]

Data set [2] concerns pooled human liver microsomes (HLM150). Kind of data set: Steady-state kinetics for 5F-APINACA metabolism by pooled human liver microsomes. The class given is in vitro ADME. How it is done: as §1, §2
For orientation: Liver microsomes are a subcellular fraction often used to study metabolism.

For data set [3], the system named is human CYPs in human liver microsomes. As to the kind of experiment: Chemical inhibitor phenotyping of 5F-APINACA reactions, human liver microsomes. The class given is in vitro ADME. The conditions noted are these: 25 µM 5F-APINACA; for effect of inhibitor on formation of 5F-APINACA metabolites: 0.1 mg/mL HLM, 1000 µM ABT, 1 µM ketoconazole. The procedure: (§3) Inhibitor phenotyping experiments were carried out to qualitatively identify probable P450 isozymes catalyzing 5F-APINACA metabolic pathways present in our mouse and human liver microsome studies. Reactions contained 0.1 mg/mL protein (MLM or HLM), 25 µM 5F-APINACA, specific CYP inhibitors, 0.25% methanol, 1% acetonitrile, 1.0 mM NADPH-regenerating system, and 100 mM phosphate buffer, pH 7.4. […] For each experiment, the following were included as final concentrations: 10 µM furafylline for CYP1A2, 2 µM tranylcypromine (TCP) for CYP2A6, 3 µM ticlopidine (TIC) for CYP2B6, 16 µM montelukast (MTK) for CYP2C8, 10 µM sulfaphenazole (SPA) for CYP2C9, 16 µM (+)-N-3-benzylnirvanol (NBZ) for CYP2C19, 2 µM quinidine (QND) for CYP2D6, 30 µM 4-methylpyrazole (4MP) for CYP2E1, 1 µM ketoconazole (KCZ) for CYP3A4, and 1000 µM ABT for all CYPs. Each inhibitor stock solution (except FUR) was prepared in potassium phosphate buffer pH 7.4 with 1% acetonitrile (final) as a co-solvent. After a preincubation period of 15 min with shaking, the reactions were initiated with the addition of a NADPH-regenerating system and shaken. For FUR, the inhibitor was prepared in methanol and a microsomal reaction was carried out at 10 µM for 10 min prior to addition of 5F-APINACA. After 30 min, all reactions were quenched, processed, and analyzed by HPLC as previously described. The resultant values were normalized to reaction rates observed in absence of inhibitors to yield a percent inhibition value.
Sample reactions were analyzed to quantitate metabolites by absorbance. Analytes were separated on a Waters XBridge BEH C18 3.5 μM column (4.6 mm × 100 mm) using an Agilent 1100 series HPLC instrument equipped with a VWD detector (280 nm). The mobile phase consisted of solvent A (10% solvent B, 90% water) and solvent B (0.1% formic acid/acetonitrile). A gradient method started at 80% solvent A for the first minute, then decreased to 70% for the next 6 min. […] Parent drug and metabolite responses were normalized to the internal standard acenocoumarol and quantitated using a standard curve generated with 5OH-APINACA. The absorbance response corresponds to the indazole ring, which remained unmodified in these reactions, so that the relative absorbance response for all analytes were approximately the same, making inference for quantitation purposes possible.
(§4) Various statistical approaches were employed among the experimental studies to identify the most likely models for explaining the data or establish the significance of the findings. For the explicit kinetic models, the best-fit kinetic model and corresponding constants were determined using the extra sum-of-squares F test. […]

Data set [4] concerns mouse Cyps in CD-1 mouse liver microsomes. Kind of data set: Chemical inhibitor phenotyping of 5F-APINACA reactions, CD-1 mouse liver microsomes. Format: in vitro ADME. The following applies: 25 µM 5F-APINACA. How it is done: as §3, with “For FUR, the inhibitor was prepared in methanol and a microsomal reaction was carried out at 10 µM for 10 min prior to addition of 5F-APINACA.” left out, “The resultant values were normalized to reaction rates observed in absence of inhibitors to yield a percent inhibition value.” left out
Sample reactions were analyzed to quantitate metabolites by absorbance. […] Parent drug and metabolite responses were normalized to the internal standard acenocoumarol and quantitated using a standard curve generated with 5OH-APINACA. The absorbance response corresponds to the indazole ring, which remained unmodified in these reactions, so that the relative absorbance response for all analytes were approximately the same, making inference for quantitation purposes possible.
as §4

Another data set has as its system mice. Also noted: method as in PMID 30420360, PMID 32413436. The conditions noted are these: with 1-aminobenzotriazole (ABT); cited from earlier work.
[5] abbreviates: formation of the metabolite from 5F-APINACA, parentheses 95% confidence interval.
The mark [6] stands for this setting: global fit to differential rate equations, calculated from micro-rate constants, parentheses standard error.
Where [7] appears, read: global fit to differential rate equations, parentheses standard error.
Where [8] appears, read: global fit to differential rate equations, second substrate binding (ESS), parentheses standard error.
The mark [9] stands for this setting: Combined adamantyl hydroxylation pathway, parentheses 95% confidence interval.

Turning to `O=C(NC12CC3CC(CC(C3)C1)C2)c1nn(CCCCCO)c2ccccc12` [5OH-APINACA], the Vmax in data set [1] (setting [5]) is recorded as 690 (650–730) pmol min^−1 mg protein^−1; in data set [2] (formation of the metabolite from 5F-APINACA, 0.1 mg/mL protein, parentheses 95% confidence interval), 465 (446–485) pmol min^−1 mg protein^−1. For the same compound, the “h (Hill coefficient)” value in data set [1] (setting [5]) is given as 1.4 (1.0–1.8). Besides, the Km1 result in data set [1] (setting [6]) was “((k2 + k3 + k4)/k1) 3.75 (0.21) µM”; in data set [2] (setting [6]), “((k2 + k3 + k4)/k1) 5.69 (0.35) µM”. Besides, the kcat1/Km1 was 0.238 (0.017) mL min^−1 nmol^−1 in data set [1] (setting [7]) and 0.193 (0.015) mL min^−1 nmol^−1 in data set [2] (setting [7]). Further, the kcat1 result is recorded as “k3 0.89 (0.04) min^−1” in data set [1] (global fit to differential rate equations, rates normalized to total CYP (0.67 μM), parentheses standard error) and “k3 1.10 (0.35) min^−1” in data set [2] (global fit to differential rate equations, rates normalized to total CYP (0.38 μM), parentheses standard error). For the same compound, the Km2 entry in data set [1] (setting [8]) is reported as “((k6 + k7 + k8)/k5) 122 (6) µM”; in data set [2] (setting [8]) it was “((k6 + k7 + k8)/k5) 181 (10) µM”. Moreover, the kcat2 entry in data set [1] (setting [8]) is “k7 1.17 (0.05) min^−1”; in data set [2] (setting [8]), “k7 1.23 (0.1) min^−1”. The kcat2/Km2 in data set [1] (setting [8]) is on record as 0.0096 (0.0006) mL min^−1 nmol^−1; in data set [2] (setting [8]) it was 0.0065 (0.0013) mL min^−1 nmol^−1.
With `Nn1nnc2ccccc21` [ABT, 1-aminobenzotriazole, reference compound], the “effect of inhibitor on formation of 5F-APINACA metabolites” value in data set [3] is “completely blocked the formation of all metabolites”.
As to “N-(1-adamantyl)-1-(5-pentyl)-1H-indazole-3-carboxamide [5F-APINACA]”, in data set [1] (setting [9]), the “Ki (substrate inhibition)” value is listed as 220 (74–1300) µM and the Vmax is on record as 465 (330–730) pmol min^−1 mg protein^−1. The Km (as a rule, the substrate concentration at which the rate is half of its maximum) in data set [1] (Combined adamantyl hydroxylation pathway, parentheses 95% confidence interval, read-out: Km or Kh) came out at 3.8 µM. The “contribution of CYPs to metabolism” value in data set [4] (CD-1 microsomes) is “sole role of CYPs”. The “dominant isozyme carrying out metabolic reactions” value in data set [4] (human CYP inhibitors) is “Cyp3a11”. For the same compound, in data set [4] (implicated by inhibitor for CYP2C19), the “other dominant contributors to adamantyl hydroxylation, but minor contributors to oxidative defluorination” value was “Cyp2c37, Cyp2c50, and Cyp2c54”. Further, in data set [2] (setting [9]), the “Ki (substrate inhibition)” value is given as 300 (150–790) µM, the Km came to 3.3 µM and the Vmax is given as 400 (330–510) pmol min^−1 mg protein^−1. Further, in data set [3] (chemical inhibitor phenotyping), the “dominant isozyme for both pathways” value is reported as “CYP3A4”; the “isozymes with minor contributions to metabolism” value is “CYP2C8, 2C19, and 2D6”. In the data set with mice, the “hypothermia in mice on suppression of metabolism by pan-CYP inhibitor ABT” value is reported as “increased hypothermia”.
Regarding `CC(=O)N1CCN(c2ccc(OCC3COC(Cn4ccnc4)(c4ccc(Cl)cc4Cl)O3)cc2)CC1` (centres unmarked) [ketoconazole, reference compound], the “effect of inhibitor on formation of 5F-APINACA metabolites” value in data set [3] is “inhibition of these pathways”.
